Data reported in patent publication US20230218624A1 (Urovant Sciences GmbH, priority 2017, published 2023).

Experiments:
β1-AR = target: T1, β1-AR (Homo sapiens, UniProt P08588); assay: Competition binding assay, membranes with recombinant β1-AR
T1 construct: expressed in transfected cells; membranes prepared from them

Plasma protein binding = assay type: in vitro ADME; conditions: human, plasma
human plasma proteins = assay: Plasma protein binding; assay type: in vitro ADME
CYP3A4 = CYP3A4 (Homo sapiens, UniProt P08684); assay: In vitro CYP metabolism; assay type: in vitro ADME
[1] = Single rising oral dose Phase 1 pharmacokinetics; assay type: in vivo, human
Method: The steady state AUC geometric mean accumulation ratios were ˜2 in young male subjects and ˜2.8 in elderly subjects (male and female).
All subjects were healthy adults. […] Systemic exposures were greater than dose proportional up to 600 mg.

[2] = Relative bioequivalence of aqueous and non-aqueous tablet; assay type: in vivo, human; conditions: 50 mg
From the text: An open-label, single-dose, randomized, two-period, two-treatment, two-sequence, crossover Phase 1 study evaluated the relative bioequivalence of two types of tablets with slightly different composition: aqueous tablet (test) and non-aqueous tablet (reference).

[3] = tested on: males and females with OAB; assay: Phase 3 12-week placebo controlled study in OAB; assay type: in vivo, human; conditions: Week 12
Method: After eight weeks, the dose could be increased to 100 mg once daily as clinically indicated.

healthy subjects [4] = assay: Phase 1 safety data; assay type: in vivo
Method: (§1) Exposure, and therefore risk of adverse-events can be further reduced with a 50 mg dose.

[5] = tested on: patients with overactive bladder; assay: Phase 2 safety data, adverse events (main study and 52-week extension)
From the text: A placebo group was included in the main study, and a group that received tolterodine monotherapy was included in the main study and in the extension.

healthy subjects [6] = assay: Maximum MA4 heart rate in multiple-dose Phase 1 study; assay type: in vivo, human; conditions: Day 14
Method: More intensive assessments of heart rate and blood pressure were performed in healthy volunteers in several Phase 1 studies. […] Doses ranged from 25 to 400 mg once daily for 7 to 28 days depending on the cohort. Least squares mean and 90% confidence intervals of maximum change from baseline in moving average of heart rate over 4 hours postdose (MA4 HR) are presented in Table 17.

[7] = Dose-Cmax and dose-AUC models and simulations from Phase 1 data; set-up: species or system human
Method: as §1

CYP3A4, sequence (P08684 whole entry): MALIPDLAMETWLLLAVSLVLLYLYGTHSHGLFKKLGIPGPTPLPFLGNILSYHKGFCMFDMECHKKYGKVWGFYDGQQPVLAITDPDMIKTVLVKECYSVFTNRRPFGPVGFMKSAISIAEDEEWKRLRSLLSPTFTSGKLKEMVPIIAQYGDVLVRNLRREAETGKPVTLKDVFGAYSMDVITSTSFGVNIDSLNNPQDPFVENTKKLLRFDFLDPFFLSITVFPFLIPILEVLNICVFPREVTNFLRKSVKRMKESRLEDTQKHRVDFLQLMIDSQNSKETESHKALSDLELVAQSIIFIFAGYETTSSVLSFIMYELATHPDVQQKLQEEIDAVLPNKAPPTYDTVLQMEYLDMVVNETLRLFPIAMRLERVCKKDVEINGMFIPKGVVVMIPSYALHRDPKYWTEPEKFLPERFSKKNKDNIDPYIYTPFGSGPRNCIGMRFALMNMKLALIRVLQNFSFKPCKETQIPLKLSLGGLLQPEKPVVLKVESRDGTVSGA
T1 sequence (P08588 whole entry): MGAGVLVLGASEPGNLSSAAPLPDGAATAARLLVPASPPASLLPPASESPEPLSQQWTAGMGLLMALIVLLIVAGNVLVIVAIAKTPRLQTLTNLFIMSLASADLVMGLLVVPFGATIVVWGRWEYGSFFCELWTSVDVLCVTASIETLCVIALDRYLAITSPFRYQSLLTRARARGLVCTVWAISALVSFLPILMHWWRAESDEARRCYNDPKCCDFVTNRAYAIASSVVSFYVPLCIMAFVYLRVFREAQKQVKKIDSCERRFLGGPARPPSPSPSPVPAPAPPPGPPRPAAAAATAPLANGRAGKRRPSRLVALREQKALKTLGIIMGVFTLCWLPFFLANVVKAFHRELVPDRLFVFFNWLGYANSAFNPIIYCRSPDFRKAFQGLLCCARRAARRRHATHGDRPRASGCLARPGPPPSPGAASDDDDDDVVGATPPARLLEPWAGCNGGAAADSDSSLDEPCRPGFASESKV

SMILES: O=C(Nc1ccc(C[C@@H]2CC[C@H]([C@H](O)c3ccccc3)N2)cc1)[C@@H]1CCc2nccc(=O)n21 [Vibegron, (6S)—N-[4-[[(2S,5R)-5-[(R)-hydroxy(phenyl)methyl]pyrrolidin-2-yl]methyl]phenyl]-4-oxo-7,8-dihydro-6H-pyrrolo[1,2-a]pyrimidine-6-carboxamide]
- binding to β1-AR (β1-AR): does not bind
- fraction unbound (Plasma protein binding): 0.49
- bound to human plasma proteins (human plasma proteins): approximately 49%
- CYP responsible for in vitro metabolism (CYP3A4): CYP3A4 is the predominant CYP responsible for in vitro metabolism
- exposure increase, young Japanese vs non-Japanese young males ([1]; single dose): < 2 fold
- t1/2 (harmonic mean ± pseudo SD) ([1]; single dose 50 mg, Japanese healthy young males): 64.4 ± 8.7 h
- t1/2 (harmonic mean ± pseudo SD) ([1]; single dose 50 mg, elderly male and female): 92.1 ± 15.9 h
- t1/2 (harmonic mean ± pseudo SD) ([1]; single dose 200 mg, healthy young males): 75.3 ± 9.1 h
- t1/2 (harmonic mean ± pseudo SD) ([1]; single dose 450 mg, healthy young males): 60.0 ± 9.4 h
- AUC0-inf GMR test to reference tablet [2]: 100.2%
- Cmax GMR test to reference tablet [2]: 107.7%
- Micturitions, LS mean placebo adjusted change from baseline (95% CI) ([3]; 50 mg): −0.86 (−1.12, −0.60)
- Total incontinence episodes, LS mean placebo adjusted change from baseline (95% CI) ([3]; 50 mg): −0.30 (−0.49, −0.12)
- Urge urinary incontinence episodes, LS mean placebo adjusted change from baseline (95% CI) ([3]; 50 mg): −0.27 (−0.44, −0.10)
- Urgency episodes, LS mean placebo adjusted change from baseline (95% CI) ([3]; 50 mg): −0.51 (−0.76, −0.25)
- Volume voided, LS mean placebo adjusted change from baseline (95% CI) ([3]; 50 mg): 25.76 (20.02, 31.46) mL
- Micturitions, LS mean placebo adjusted change from baseline (95% CI) ([3]; 100 mg): −0.81 (−1.07, −0.55)
- Total incontinence episodes, LS mean placebo adjusted change from baseline (95% CI) ([3]; 100 mg): −0.43 (−0.61, −0.24)
- Urge urinary incontinence episodes, LS mean placebo adjusted change from baseline (95% CI) ([3]; 100 mg): −0.39 (−0.55, −0.22)
- Urgency episodes, LS mean placebo adjusted change from baseline (95% CI) ([3]; 100 mg): −0.67 (−0.93, −0.42)
- Volume voided, LS mean placebo adjusted change from baseline (95% CI) ([3]; 100 mg): 22.16 (16.44, 27.89) mL
- tolerability (healthy subjects [4]; Phase 1 program, single 2 to 600 mg, multiple 25 to 400 mg): generally well tolerated
- orthostatic AEs (healthy subjects [4]; vibegron 100 mg coadministered in essential hypertension on metoprolol or amlodipine): no occurrences of orthostatic AEs
- Accidental overdose, % subjects ([5]; 3 mg, first 12 weeks): (2.1) %
- Accidental overdose, n subjects ([5]; 3 mg, first 12 weeks): 3
- Accidental overdose, % subjects ([5]; 15 mg, first 12 weeks): (4.5) %
- Accidental overdose, n subjects ([5]; 15 mg, first 12 weeks): 6
- Accidental overdose, % subjects ([5]; 50 mg, first 12 weeks): (2.7) %
- Accidental overdose, n subjects ([5]; 50 mg, first 12 weeks): 4
- Accidental overdose, % subjects ([5]; 100 mg, first 12 weeks): (4.2) %
- Accidental overdose, n subjects ([5]; 100 mg, first 12 weeks): 11
- ≥1 AE, n subjects ([5]; 100 mg, first 12 weeks): 107
- frequency of injuries ([5]; human, in vivo): 0.9%
- increased exposure (potential risk) ([5]; human, in vivo): ~2 fold
- Maximum MA4 HR difference from placebo (90% CI) (healthy subjects [6]; 25 mg once daily): −1.60 (−7.09, 3.88) bpm
- Maximum MA4 HR, LS mean (90% CI) (healthy subjects [6]; 25 mg once daily): 1.47 (−3.24, 6.17) bpm
- Maximum MA4 HR difference from placebo (90% CI) (healthy subjects [6]; 50 mg once daily): −1.57 (−6.70, 3.56) bpm
- Maximum MA4 HR, LS mean (90% CI) (healthy subjects [6]; 50 mg once daily): 1.50 (−2.79, 5.79) bpm
- Maximum MA4 HR, LS mean (90% CI) (healthy subjects [6]; 100 mg once daily): 3.28 (−1.02, 7.57) bpm
- Maximum MA4 HR difference from placebo (90% CI) (healthy subjects [6]; 150 mg once daily): 0.10 (−5.04, 5.23) bpm
- Maximum MA4 HR, LS mean (90% CI) (healthy subjects [6]; 150 mg once daily): 3.17 (−1.13, 7.46) bpm
- Maximum MA4 HR difference from placebo (90% CI) (healthy subjects [6]; 200 mg once daily): 2.60 (−2.89, 8.08) bpm
- Maximum MA4 HR, LS mean (90% CI) (healthy subjects [6]; 200 mg once daily): 5.67 (0.96, 10.37) bpm
- Maximum MA4 HR difference from placebo (90% CI) (healthy subjects [6]; 300 mg once daily): 5.98 (0.85, 11.12) bpm
- Maximum MA4 HR, LS mean (90% CI) (healthy subjects [6]; 300 mg once daily): 9.06 (4.76, 13.35) bpm
- Maximum MA4 HR difference from placebo (90% CI) (healthy subjects [6]; 400 mg once daily): 7.26 (2.13, 12.39) bpm
- Maximum MA4 HR, LS mean (90% CI) (healthy subjects [6]; 400 mg once daily): 10.33 (6.04, 14.63) bpm
- higher Cmax in elderly and females than healthy young males [7]: 50-70%
- reduction in Cmax ([7]; dose decreased from 100 mg to 75 mg): ~40%
- AUC of 75 mg lower than 200 mg single dose ([7]; estimation): ~2 fold
- AUC of 75 mg lower than 400 mg single dose ([7]; estimation): ~6 fold
- Cmax of 75 mg lower than 200 mg single dose ([7]; estimation): approximately 3.3 fold
